Assay results taken from PMC9179882 (Cancers, 2022).

Tests used:
[1] = tested on: CMYC (CD and UV-vis oligonucleotide) (DNA, G4) TGGGGAGGGTGGGGAGGGTGGGGAAGG; test: UV-vis titration at 265 nm; settings: 100 mM KCl, 10 mM potassium phosphate; pH 7.0, 25 °C; 5 µM DNA; GA to 1:20 DNA:GA
[2] = tested on: 5′ETS G4; test: PCR-stop assay, 5′ETS G4; format: biochemical; settings: 5′ETS G4 sequence, GA 0-100 µM
[3] = tested on: SW480 cells; test: Cell cycle analysis by propidium iodide flow cytometry; format: cell-based, human; settings: SW480, GA IC50 for 24 h
Experimental: Cell cycle analyses were carried out by flow cytometry with propidium iodide (PI) (P4864, Merck, Darmstadt, Germany). Cells (10^6) were seeded into 10 cm culture dishes and treated with GA IC50 for 24 h or with the vehicle DMSO as control. Cells were then fixed with ice-cold 70% ethanol on ice and stained with 0.04 mg/mL PI and 0.1 mg/mL ribonuclease A (19101, Qiagen, Hilden, Germany). Cell cycle distribution was determined by an analytical DNA flow cytometer (FACSVerse, BD Biosciences) with instrument settings on low mode and FlowJo software v10.
GA is widely present in the plant kingdom and largely found in different food sources. According to its cytotoxic activity (shown above), cell cycle analysis was performed on SW480 cells by FACS with propidium iodide staining (Figure 1C). After GA IC50 treatment for 24 h, the frequency of cells at different stages of the cell cycle changed with respect to non-treated cells (45.34% of cells at G1, 34.16% at S, 7.65% at G2/M). […] To explore this hypothesis, we determined the intracellular localization of nucleolar proteins by immunofluorescence of SW480 cells treated with GA IC50 for 6 h because we had previously observed that some DNA-binding compounds affect nucleolar organization. In particular, we analyzed three proteins that are indicative of nucleolus status, such as nucleolin (NCL), fibrillarin (FBL), and Pol I catalytic subunit A (POLR1A) (Figure 1D).

[4] = target: 5′ETS G4; test: UV-vis titration, 5′ETS G4; format: binding; settings: UV-vis titration at 265 nm, 5′ETS G4, 25 °C, pH 7.0; read-out: dissociation constant (Kd)
Experimental: (§1) G4-oligonucleotides listed in Supplementary Table S3 were purchased from Integrated DNA Technologies (Clareville, IA, USA). All of them were dissolved in G4s buffer (10 mM potassium phosphate, 100 mM potassium chloride at pH 7.0), heated at 95 °C for 10 min, slowly cooled to RT, and stored at 4 °C.
(§2) UV-vis absorption spectra were registered in a Varian Cary 50 UV-vis spectrophotometer at 25 °C. Concentration of the prefolded G4 DNA was 5 μM in G4s buffer (10 mM potassium phosphate buffer containing 100 mM potassium chloride at pH 7.0). Once the DNA was placed in the cuvette, a concentrated solution of GA (1 mM) was routinely added, 1 μL each time, with a Hamilton syringe and subsequently mixed with a pipette. After each addition of the GA solution, a UV-vis spectrum was recorded. In total, 10 μL of GA solution were added, with a final ratio of 1:20 G4 DNA:GA. For the blank, the same experiment with the successive additions was repeated, beginning just with buffer in the cuvette. […] Dissociation constants (Kd) were evaluated at 265 nm using the following equation:(1) A=Am+(Aml-Am)×(M+L+Kd)−(M+L+Kd)^2−4×M×L/2×M where A is the absorbance signal, Am is the signal of DNA in absence of the ligand, Aml is the signal of DNA in presence of the ligand, M is the total concentration of DNA, L is the total concentration of ligand, and Kd is the dissociation constant.

[5] = target: CMYC G4; test: UV-vis titration, CMYC G4; format: binding; settings: UV-vis titration at 265 nm, CMYC G4, 25 °C, pH 7.0; read-out: dissociation constant (Kd)
Experimental: as §1, §2

[6] = tested on: CMYC (CD and UV-vis oligonucleotide) (DNA, G4) TGGGGAGGGTGGGGAGGGTGGGGAAGG; test: circular dichroism; settings: 100 mM KCl, 10 mM potassium phosphate; pH 7.0, 25 °C; 10 µM DNA, 100 µM GA; positive band decreased, no induced CD
[7] = tested on: 5′ETS (DNA, G4) GGGGGGCGGGTGGTTGGG; test: circular dichroism; settings: 100 mM KCl, 10 mM potassium phosphate; pH 7.0, 25 °C; 10 µM DNA, 100 µM GA; positive band decreased, no induced CD
[8] = tested on: 5′ETS (DNA, G4) GGGGGGCGGGTGGTTGGG; test: UV-vis titration at 265 nm; settings: 100 mM KCl, 10 mM potassium phosphate; pH 7.0, 25 °C; 5 µM DNA; GA to 1:20 DNA:GA
[9] = tested on: CMYC G4; test: TOPRO3 fluorescent intercalator displacement (FID) assay, CMYC G4; format: binding; settings: GA 10 µM, relative to GA-free control, CMYC promoter G4
Experimental: as §1
(§3) We used TOPRO3 (T3605, Thermo Scientific, MA, USA) as a fluorescent intercalator for FID assays. In particular, […] TOPRO3 was incubated with […] prefolded G4s and exposed to 10 µM GA in 96-well plates. TOPRO3 was excited at 642 nm, and emission profile was monitored between 650–800 nm with Infinite M200 Plate Reader (Tecan). Fluorescence values were calculated as follows: %Fluorescence = A/B × 100; where (A) is the fluorescence value in presence of GA, and (B) corresponds to the fluorescence value in GA-free controls. All assays were conducted in triplicate. The G4-oligonucleotides used in the current study are listed in Supplementary Table S3.

[10] = tested on: CMYC (FID oligonucleotide) (DNA, G4) GGGGCGCTTATGGGGAGGGTGGGGAGGGTGGGGAAGGTGGGGAGGAG; test: fluorescent intercalator displacement (TOPRO3); settings: oligonucleotide prefolded in 100 mM KCl, 10 mM potassium phosphate; TOPRO3 displaced; 10 µM GA, single concentration; prefolding buffer pH 7.0
[11] = tested on: 5′ETS G4; test: TOPRO3 fluorescent intercalator displacement (FID) assay, 5′ETS G4; format: binding; settings: GA 10 µM, relative to GA-free control
Experimental: as §1, §3

[12] = tested on: 5′ETS (DNA, G4) GGGGGGCGGGTGGTTGGG; test: fluorescent intercalator displacement (TOPRO3); settings: oligonucleotide prefolded in 100 mM KCl, 10 mM potassium phosphate; TOPRO3 displaced; 10 µM GA, single concentration; prefolding buffer pH 7.0

In the case of `O=C(O)c1cc(O)c(O)c(O)c1` [Gallic acid, 3,4,5-trihydroxybenzoic acid], the Kd [1] is reported as 113 µM, the “concentration inhibiting accumulation of amplified products” value [2] is reported as 100 µM and the “% of cells at G2/M” value ([3]; non-treated 7.65%) is reported as 14.46%. The “% of cells at S” value ([3]; non-treated 34.16%) was 43.82%, the “% of cells at G1” value ([3]; non-treated 45.34%) was 28.30% and the Kd [4] was 148 µM. For the same molecule, the Kd [5] was 113 µM, the binding [6] was “yes” and the binding [7] was “yes”. For the same molecule, the Kd [8] was 148 µM, the TOPRO3 fluorescence percentage [9] was 84.3% and the “%Fluorescence” value [10] was 84.3%. The TOPRO3 fluorescence percentage [11] was 84.2% and the “%Fluorescence” value [12] was 84.2%.
